Reference: patent US8946457B2, “Flavone derivatives and their preparative method and medical use” (Tianjin Medical University, priority 2010, dated 2015)
“Also recorded” adds a separate entry of the source.

Experiments:
[1] = test system: GLUT4; assay: GLUT4myc translocation (cell surface GLUT4myc density, ELISA) in L6-GLUT4myc skeletal muscle cells; type: cell-based, rat; conditions: for Stimulation of GLUT4myc translocation, in words: L6-GLUT4myc muscle cells, 24 h incubation; for Effect on GLUT4 translocation compared with insulin: L6-GLUT4myc cells, insulin 100 nM positive control
From the text: GLUT4 is the main glucose transporter in skeletal muscle. In the basal state, the majority of GLUT4 locate in vesicles of cytoplasma. In response to insulin, GLUT4 translocates to the cell membrane, therefore transport more glucose into cell. The rate of glucose transport is the rate-limiting step of glucose metabolism in skeletal muscle. […] In order to measure GLUT4 translocation, we use stable over expressing GLUT4myc rat muscle cell line, L6-GLUT4myc. The amount of GLUT4 on intact cell membrane was measured by ELISA with anti-myc antibody and HRP-conjugated secondary antibody. The OD value was detected at 492 nm.
The tested compounds were dissolved in DMSO as stock. The final solution was 1:1,000 dilution of the stock in low glucose DMEM.
The cells were treated with each compound at 2 to 5 different concentrations with triplicate in each group. The control group was treated with 0.1% DMSO. The blank group had no treatment. Insulin was used as positive control.
Myoblasts were cultured and differentiated into myotubes. Cells were serum starved for 4 hours, then incubated with different compounds at different concentrations for 24 hours or with 100 nM insulin for 20 min. Then cells were washed 3 times with ice-cold phosphate-butfered saline (PBS) supplemented with 1 mM Ca2+ and 1 mM Mg2+(PBS+), fixed with 3% (v/v) paraformaldehyde (PFA) in PBS+ for 10 min at 4° C., then 20 min at room temperature. The cells were washed twice with PBS+, quenched 10 min with 100 mM glycine in PBS+, blocked 10 min with ice-cold 5% (v/v) milk in PBS+, and reacted with polyclonal anti-myc antibody (1:250) for 1 hour. After washing 6 times with PBS+, cells reacted with HRP-bound goat anti-rabbit secondary antibody (1:5000) for 1 hour. The cells were washed 6 times with PBS+, and incubated with 1.0 ml OPD reagent and allowed to develop for 10-20 min. The reaction was stopped with 0.25 ml per well of 3 M HCl. Supernatants were collected and absorbance was measured at 492 nm. Background absorbance obtained in the absence of anti-myc antibody was subtracted from all values.
All data were presented as the means±SD. SPSS16.0 was used for statistical analysis. Data sets of more than two groups were compared using analysis of variance (One-Way ANOVA). Statistical significance was at a level of 5% (p<0.05).

[2] = test system: IR HepG2 cells; assay: Glucose consumption assay in IR HepG2 cells; type: cell-based, Human; conditions: for EC50: Homo sapiens, insulin-resistant HepG2 cells, 24 h incubation with compound, read-out: EC50, effects on glucose consumption in IR HepG2 cells; for Antidiabetic activity (glucose consumption) compared with metformin, in words: IR HepG2 cells, comparison with metformin
Protocol: The compounds were dissolved in DMSO as stock. The final solution was 1:1,000 dilution of the stock in DMEM.
Human HepG2 cells were cultured in 96-well cluster plates, after achieving confluence, 10^−[…] insulin was treated for 36 h in serum-free and phenol red-free high-glucose DMEM. After this incubation, the cells were washed four times with high-glucose DMEM ([…]) and twice with phosphate-buffered saline. The cells were added to serum-free and phenol red-free high-glucose DMEM containing the various test compounds at different concentrations, incubated for 24 h, and then glucose content in the culture medium was measured using a glucose assay kit.
The enhancement ratio of glucose consumption (GC) was calculated as follows: GC %=(GC treatment group−GC of control group)/GC of control group×100.
The potencies of the products were expressed as median effective concentration (EC50) values.
All data were presented as the means±SD. SPSS10.0 was used for statistical analysis. Statistical significance was at a level of 5% (p<0.05).

[3] = test system: ACC; assay: Phosphorylation of ACC by western blotting in HepG2 cells; type: cell-based, Human; conditions: 2 h incubation, western blot
Protocol: (§1) In this section, Western Blotting was used to assay the effect of these flavonoids on the phosphorylation of AMPK and ACC in HepG2 cells to illustrate the relationship between the mechanism of the flavonoids on glucose uptake and lipid metabolism and APMK signal pathway.
(§2) Whole cell lysate preparation: After serum-starving HepG2 cells, the cells were incubated with the flavonoids for 2 h, and then washed twice with PBS. Next, pre-chilled RIPA lysis buffer was added for 20 min at 4° C. The lysates were centrifuged at 13,000 rpm/min for 10 min at 4° C., and the supernatants were used for determination of total protein content. Forty micrograms of protein from the supernatant was aliquoted and its volume was adjusted to thirty microliters using deionized water and loading buffer. Lastly, the protein samples were heated at 65° C. for 15 min.
(§3) Western blot analysis: The samples were electrophoresed on 7.5% SDS-polyacrylamide gels, transferred to polyvinylidene fluoride membranes, blocked for 1 h in 5% (w/v) bovine serum albumin, and then incubated with primary antibodies overnight at 4° C. The membranes were washed three times with TBST and incubated with appropriate secondary antibodies conjugated to horse-radish peroxidase for 1 h at room temperature. The immunoreactive bands were detected using chemiluminescent reagent and autoradiographic film.

[4] = test system: AMPK; assay: Phosphorylation of AMPK by western blotting in HepG2 cells; type: cell-based, Human; conditions: 2 h incubation, western blot
Protocol: as §1, §2, §3

Row | Compound | EC50 [2] | Antidiabetic activity (glucose consumption) compared with metformin, in words [2] | further results
1 | COc1ccc(/C=C/C(=O)COc2c(-c3ccc(O)cc3)oc3cc(O)cc(O)c3c2=O)cc1 [Compound I-3, 3-O-[(E)-4-(4-Methoxyphenyl)-2-oxobut-3-en-1-yl] kaempferol] | 149 nM | comparable activity with that of metformin; also recorded: significantly superior to that of metformin | Stimulation of GLUT4myc translocation, in words [1]: significantly stimulate GLUT4myc translocation
2 | O=C(/C=C/c1ccccc1)COc1c(-c2ccc(O)cc2)oc2cc(O)cc(O)c2c1=O [Compound I-5, 3-O-[(E)-(2-Oxo-4-phenylbut-3-en-1-yl)] kaempferol] | 473 nM |  | 
3 | CN(C)C(=N)N=C(N)N [metformin, reference compound] | 270 nM |  | 
4 | Cc1ccc(/C=C/C(=O)COc2c(-c3ccc(O)cc3)oc3cc(O)cc(O)c3c2=O)cc1 [Compound I-6, 3-O-[(E)-(2-Oxo-4-(p-tolyl)but-3-en-1-yl)] kaempferol] | 10 nM | comparable activity with that of metformin; also recorded: significantly superior to that of metformin | 
5 | N#Cc1ccc(/C=C/C(=O)COc2c(-c3ccc(O)cc3)oc3cc(O)cc(O)c3c2=O)cc1 [Compound I-12, 3-O-[(E)-4-(4-Cyanophenyl)-2-oxobut-3-en-1-yl] kaempferol] | 3 nM | comparable activity with that of metformin; also recorded: significantly superior to that of metformin; also recorded: strongest antidiabetic activity; also recorded: greater than that of marketed drug metformin | Effect on GLUT4 translocation compared with insulin ([1]; 2 μg/ml): higher effect on GLUT4 translocation than insulin; also recorded: strongest effect on promoting glucose transporter 4 translocation than insulin; Effect on GLUT4 translocation compared with insulin ([1]; 5 μg/ml): higher effect on GLUT4 translocation than insulin; also recorded: strongest effect on promoting glucose transporter 4 translocation than insulin; Stimulation of GLUT4myc translocation, in words [1]: strongest effect; also recorded: significantly stimulate GLUT4myc translocation; Phosphorylation of ACC [3]: significantly stimulate the phosphorylation; Phosphorylation of AMPK [4]: significantly stimulate the phosphorylation
6 | O=C(/C=C/c1ccc(F)cc1)COc1c(-c2ccc(O)cc2)oc2cc(O)cc(O)c2c1=O [Compound I-14, 3-O-[(E)-4-(4-Fluorophenyl)-2-oxobut-3-en-1-yl] kaempferol] | 669 nM |  | Stimulation of GLUT4myc translocation, in words [1]: significantly stimulate GLUT4myc translocation
7 | O=C(/C=C/c1ccc(O)c(Cl)c1)COc1c(-c2ccc(O)cc2)oc2cc(O)cc(O)c2c1=O [Compound I-11, 3-O-[(E)-4-(3-Chloro-4-hydroxyphenyl)-2-oxobut-3-en-1-yl] kaempferol] | 3560 nM |  | 
8 | O=C(/C=C/c1ccc(Cl)c(Cl)c1)COc1c(-c2ccc(O)cc2)oc2cc(O)cc(O)c2c1=O [Compound I-16, 3-O-[(E)-4-(3,4-Dichlorophenyl)-2-oxobut-3-en-1-yl] kaempferol] | 2590 nM |  | 
9 | CCOc1ccc(/C=C/C(=O)COc2c(-c3ccc(O)cc3)oc3cc(O)cc(O)c3c2=O)cc1 [Compound I-4, 3-O-[(E)-4-(4-Ethoxyphenyl)-2-oxobut-3-en-1-yl] kaempferol] | 42 nM | comparable activity with that of metformin; also recorded: significantly superior to that of metformin | 
10 | O=C(/C=C/c1ccc(O)cc1)COc1c(-c2ccc(O)cc2)oc2cc(O)cc(O)c2c1=O [Compound I-1, 3-O-[(E)-4-(4-Hydroxyphenyl)-2-oxobut-3-en-1-yl] kaempferol] | 368 nM | comparable activity with that of metformin | 
11 | O=C(/C=C/c1ccc(OCc2ccccc2)cc1)COc1c(-c2ccc(O)cc2)oc2cc(O)cc(O)c2c1=O [Compound I-2, 3-O-[(E)-4-(4-(Benzyloxyphenyl))-2-oxobut-3-en-1-yl] kaempferol] | 658 nM |  | Stimulation of GLUT4myc translocation, in words [1]: significantly stimulate GLUT4myc translocation

Continued, in another order:

Row | EC50 [2] | Compound | Antidiabetic activity (glucose consumption) compared with metformin, in words [2] | further results
12 | 15 nM | CC(C)c1ccc(/C=C/C(=O)COc2c(-c3ccc(O)cc3)oc3cc(O)cc(O)c3c2=O)cc1 [Compound I-10, 3-O-[(E)-4-(4-Isopropylphenyl)-2-oxobut-3-en-1-yl] kaempferol] | comparable activity with that of metformin; also recorded: significantly superior to that of metformin | Stimulation of GLUT4myc translocation, in words [1]: significantly stimulate GLUT4myc translocation
13 | 5070 nM | COc1ccc(/C=C/C(=O)COc2c(-c3ccc(O)cc3)oc3cc(O)cc(O)c3c2=O)cc1O [Compound I-7, 3-O-[(E)-4-(3-Hydroxy-4-methoxyphenyl)-2-oxobut-3-en-1-yl]kaempferol] |  | 
14 | 1080 nM | O=C(/C=C/c1ccc(Cl)cc1)COc1c(-c2ccc(O)cc2)oc2cc(O)cc(O)c2c1=O [Compound I-15, 3-O-[(E)-4-(4-Chlorophenyl)-2-oxobut-3-en-1-yl] kaempferol] |  | 
15 | 6190 nM | COc1cc(/C=C/C(=O)COc2c(-c3ccc(O)cc3)oc3cc(O)cc(O)c3c2=O)ccc1O [Compound I-8, 3-O-[(E)-4-(3-Methoxy-4-hydroxyphenyl-)-2-oxobut-3-en-1-yl]kaempferol] |  | 
16 | 393 nM | O=C(/C=C/c1ccc(Br)cc1)COc1c(-c2ccc(O)cc2)oc2cc(O)cc(O)c2c1=O [Compound I-13, 3-O-[(E)-4-(4-Bromophenyl)-2-oxobut-3-en-1-yl] kaempferol] |  | 
17 | 13 nM | CC(C)(C)c1ccc(/C=C/C(=O)COc2c(-c3ccc(O)cc3)oc3cc(O)cc(O)c3c2=O)cc1 [Compound I-9, 3-O-[(E)-4-(4-(tert-Butyl)phenyl)-2-oxobut-3-en-1-yl] kaempferol] | comparable activity with that of metformin; also recorded: significantly superior to that of metformin | 
